Measured values published in ChEMBL document CHEMBL1159286, “New secosteroids from an undescribed gorgonian of the genus Muricella” (J Nat Prod, 1995).
In brackets after ≈: the same amount, converted by molar mass.

Columns and labels:
[1] = tested on: Artemia; assay: Toxicity against brine shrimp larvae; assay type: organism-based; conditions: in vivo
[2] = tested on: Human alphaherpesvirus 1; assay: Antiviral activity against HSV1; assay type: functional, organism-based
[3] = tested on: Human alphaherpesvirus 2; assay: Antiviral activity against HSV2; assay type: functional, organism-based
[4] = tested on: Enterovirus C; assay: Antiviral activity against Poliovirus; assay type: functional, organism-based

For `Cc1ccc(O)cc1CC[C@@H]1[C@H](O)CC[C@]2(C)[C@@H]([C@H](C)CCCC(C)C)CC[C@@H]12` [ASTROGORGIADIOL], the LD50 [1] was over 100 ppm.
For `Cc1ccc(O)cc1CC[C@@H]1C(=O)CC[C@]2(C)[C@@H]([C@H](C)/C=C/CC(C)C)CC[C@@H]12` [CALICOFEROL A], the LD50 [1] was 1.8 ppm.
With `Cc1ccc(O)cc1CC[C@@H]1[C@H](O)CC[C@]2(C)[C@@H]([C@H](C)CCCC(C)C)[C@@H](O)C[C@@H]12` [CALICOFEROL B] the LD50 [1] was 2.3 ppm.
`C=C(CC[C@@H](C)[C@H]1CC[C@H]2[C@H](CCc3cc(O)ccc3C)[C@H](O)CC[C@]12C)C(C)C` [CALICOFEROL C] showed an LD50 [1] of over 100 ppm.
`Cc1ccc(O)cc1CC[C@@H]1C(=O)CC[C@]2(C)[C@@H]([C@H](C)/C=C/C(C)C(C)C)CC[C@@H]12` (some centres undefined) [CALICOFEROL D] gave an LD50 [1] of 37 ppm, an EC50 [2] of 1.2 µg/mL (≈ 2.92 µM) and an EC50 [3] of 1.2 µg/mL (≈ 2.92 µM). For the same molecule, the EC50 [4] was 0.4 µg/mL (≈ 0.974 µM).
With `Cc1ccc(O)cc1CC[C@@H]1C(=O)CC[C@]2(C)[C@@H]([C@H](C)CCCC(C)C)CC[C@@H]12` [CALICOFEROL E] the LD50 [1] was over 100 ppm.
